# In patent publication US4156724A, “N-acylamino-alpha-arylacetamido cephalosporins and antibacterial compositions and methods containing them” (Sumitomo Chemical Company, Limited, priority 1974, dated 1979):
# Legend:
# Type in all cases: cell-based
# Serratia No. 72 = assay: Minimum Inhibitory Concentration, Serratia No. 72
# Description: (§1) anti-microbial activity tests were carried out on the compounds obtained in the Examples.
# [1] = system: Staphylococcus aureus 209 P; assay: Minimum Inhibitory Concentration, Staphylococcus aureus 209 P; conditions: Staphylococcus aureus 209 P; for MIC: read-out: Minimum Inhibitory Concentration
# Description: as §1
# [2] = system: Klebsiella pneumoniae 602; assay: Minimum Inhibitory Concentration, Klebsiella pneumoniae 602; conditions: for MIC: Klebsiella pneumoniae, 602, Klebsiella pneumoniae 602, read-out: Minimum Inhibitory Concentration
# Description: as §1
# [3] = system: Staphylococcus aureus FS 289; assay: Minimum Inhibitory Concentration, Staphylococcus aureus FS 289; conditions: Staphylococcus aureus FS 289, strain resistant to penicillin; for MIC: FS289, read-out: Minimum Inhibitory Concentration
# Description: as §1
# *Staphylococcus aureus FS 289: strain resistant to penicillin
# [4] = system: Enterobacter aerogeneus No. 75; assay: Minimum Inhibitory Concentration, Enterobacter aerogeneus No. 75; conditions: Enterobacter aerogeneus No. 75; for MIC: read-out: Minimum Inhibitory Concentration
# Description: as §1
# [5] = system: Pseudomonas aeruginosa 104; assay: Minimum Inhibitory Concentration, Pseudomonas aeruginosa 104; conditions: Pseudomonas aeruginosa 104; for MIC: read-out: Minimum Inhibitory Concentration
# Description: as §1
# Proteus vulgaris HX 19 = assay: Minimum Inhibitory Concentration, Proteus vulgaris HX 19; conditions: Proteus vulgaris HX 19; for MIC: HX19, read-out: Minimum Inhibitory Concentration
# Description: as §1
# Escherichia coli NIHJ = assay: Minimum Inhibitory Concentration, Escherichia coli NIHJ; conditions: Escherichia coli NIHJ; for MIC: read-out: Minimum Inhibitory Concentration
# Description: as §1
Structure (SMILES),MIC (Serratia No. 72),MIC [1],MIC [2],MIC [3],MIC [4],MIC [5],MIC (Proteus vulgaris HX 19),MIC (Escherichia coli NIHJ),Minimum Inhibitory Concentration (Serratia No. 72),Minimum Inhibitory Concentration [1],Minimum Inhibitory Concentration ([2]; Klebsiella pneumoniae 602),Minimum Inhibitory Concentration [3],Minimum Inhibitory Concentration [4],Minimum Inhibitory Concentration [5],Minimum Inhibitory Concentration (Proteus vulgaris HX 19),Minimum Inhibitory Concentration (Escherichia coli NIHJ)
COc1ccc2ncc(C(=O)NC(C(=O)NC3C(=O)N4C(C(=O)O)=C(CSc5cnn[nH]5)CSC34)c3ccc(CO)cc3)c(O)c2n1 (centres unmarked) [Example 106],12.5 µg/mL,1.56 µg/mL,1.56 µg/mL,6.25 µg/mL,6.25 µg/mL,6.25 µg/mL,0.2 µg/mL,3.13 µg/mL,,,,,,,,
CC(=O)OCC1=C(C(=O)O)N2C(=O)C(NC(=O)[C@H](NC(=O)c3cnc(O)nc3O)c3ccc(O)cc3)C2SC1 (some centres unmarked) [Example 119],> 200 µg/mL,0.39 µg/mL,25 µg/mL,6.25 µg/mL,25 µg/mL,6.25 µg/mL,0.39 µg/mL,6.25 µg/mL,,,,,,,,
NC(=O)Nc1cccc(C(NC(=O)c2ccnnc2O)C(=O)NC2C(=O)N3C(C(=O)O)=C(CSc4nnc(CO)s4)CSC23)c1 (centres unmarked) [Example 48],100 µg/mL,0.78 µg/mL,3.13 µg/mL,12.5 µg/mL,25 µg/mL,25 µg/mL,0.78 µg/mL,12.5 µg/mL,,,,,,,,
CC(=O)OCC1=C(C(=O)O)N2C(=O)[C@@H](NC(=O)[C@H](NC(=O)c3cncnc3O)c3ccc(NC(N)=O)cc3)[C@H]2SC1 [Example 5],200 µg/mL,0.39 µg/mL,12.5 µg/mL,6.25 µg/mL,50 µg/mL,12.5 µg/mL,0.39 µg/mL,12.5 µg/mL,,,,,,,,
Cc1nnc(SCC2=C(C(=O)O)N3C(=O)C(NC(=O)[C@H](NC(=O)c4cnc5nc(C)c(C)nc5c4O)c4ccc(O)cc4)C3SC2)s1 (some centres unmarked) [Example 148],25 µg/mL,1.56 µg/mL,3.13 µg/mL,12.5 µg/mL,6.25 µg/mL,3.13 µg/mL,1.56 µg/mL,3.13 µg/mL,,,,,,,,
CC(=O)OCC1=C(C(=O)[O-])N2C(=O)C(NC(=O)C(NC(=O)c3cnc4cccnc4c3O)c3cccc(O)c3)C2SC1.[Na+] (centres unmarked) [Example 138],,,,,,,,,50 µg/mL,0.78 µg/mL,1.56 µg/mL,6.25 µg/mL,6.25 µg/mL,6.25 µg/mL,0.78 µg/mL,3.13 µg/mL
Cn1nnnc1SCC1=C(C(=O)O)N2C(=O)C(NC(=O)C(NC(=O)c3cncnc3O)c3ccc(CO)cc3)C2SC1 (centres unmarked) [Example 94],50 µg/mL,0.78 µg/mL,12.5 µg/mL,12.5 µg/mL,25 µg/mL,25 µg/mL,0.78 µg/mL,25 µg/mL,,,,,,,,

# Now from value to compound, other results behind:
MIC (Serratia No. 72),MIC [1],MIC [2],MIC [3],MIC [4],MIC [5],MIC (Proteus vulgaris HX 19),MIC (Escherichia coli NIHJ),Structure (SMILES),Minimum Inhibitory Concentration (Serratia No. 72),Minimum Inhibitory Concentration [1],Minimum Inhibitory Concentration ([2]; Klebsiella pneumoniae 602),Minimum Inhibitory Concentration [3],Minimum Inhibitory Concentration [4],Minimum Inhibitory Concentration [5],Minimum Inhibitory Concentration (Proteus vulgaris HX 19),Minimum Inhibitory Concentration (Escherichia coli NIHJ)
12.5 µg/mL,0.78 µg/mL,3.13 µg/mL,6.25 µg/mL,6.25 µg/mL,3.13 µg/mL,0.2 µg/mL,3.13 µg/mL,COc1ccc2ncc(C(=O)NC(C(=O)NC3C(=O)N4C(C(=O)O)=C(CSc5nnc(CO)s5)CSC34)c3ccc(O)cc3)c(O)c2n1 (centres unmarked) [Example 165],,,,,,,,
12.5 µg/mL,1.56 µg/mL,1.56 µg/mL,6.25 µg/mL,3.13 µg/mL,3.13 µg/mL,0.2 µg/mL,3.13 µg/mL,NC(=O)Nc1ccc([C@@H](NC(=O)c2cnc3cccnc3c2O)C(=O)N[C@@H]2C(=O)N3C(C(=O)O)=C(CSc4cnn[nH]4)CS[C@H]23)cc1 [Example 23],,,,,,,,
12.5 µg/mL,0.78 µg/mL,1.56 µg/mL,6.25 µg/mL,3.13 µg/mL,3.13 µg/mL,0.1 µg/mL,1.56 µg/mL,COc1ccc2ncc(C(=O)N[C@@H](C(=O)N[C@@H]3C(=O)N4C(C(=O)O)=C(CSc5nnnn5C)CS[C@H]34)c3cccc(NC(N)=O)c3)c(O)c2n1 [Example 39],,,,,,,,
12.5 µg/mL,0.78 µg/mL,1.56 µg/mL,6.25 µg/mL,6.25 µg/mL,3.13 µg/mL,0.2 µg/mL,3.13 µg/mL,NC(=O)Nc1cccc([C@@H](NC(=O)c2cnc3cccnc3c2O)C(=O)N[C@@H]2C(=O)N3C(C(=O)O)=C(CSc4nnc(CO)s4)CS[C@H]23)c1 [Example 36],,,,,,,,
12.5 µg/mL,0.78 µg/mL,3.13 µg/mL,6.25 µg/mL,6.25 µg/mL,3.13 µg/mL,0.2 µg/mL,3.13 µg/mL,CNc1nnc(SCC2=C(C(=O)O)N3C(=O)C(NC(=O)C(NC(=O)c4cnc5cccnc5c4O)c4cccc(N)c4)C3SC2)s1 (centres unmarked) [Example 78],,,,,,,,
25 µg/mL,1.56 µg/mL,1.56 µg/mL,12.5 µg/mL,3.13 µg/mL,3.13 µg/mL,0.2 µg/mL,3.13 µg/mL,O=C(O)C1=C(CSc2nncs2)CSC2C(NC(=O)C(NC(=O)c3cnc4cccnc4c3O)c3ccc(O)c(O)c3)C(=O)N12 (centres unmarked) [Example 171],,,,,,,,
